Data on eight molecules can be found in US20130131057A1, “NEW BICYCLIC COMPOUNDS AS PI3-K AND MTOR INHIBITORS” (CENTRO NACIONAL DE INVESTIGACIONES ONCOLOGICAS (CNIO, priority 2010, published 2013).

Each structure is given as a SMILES string. Values joined by “and” are separate entries in the source; they are usually repeats but may differ in a detail not shown here. Equal entries are not always repeated.

The target of the experiment is T1, PI3K (p110α/p85α) (Homo sapiens, UniProt P42336).
T1 construct: purchased Carna Biosciences 07CBS-0402A
T1 sequence (P42336 whole entry): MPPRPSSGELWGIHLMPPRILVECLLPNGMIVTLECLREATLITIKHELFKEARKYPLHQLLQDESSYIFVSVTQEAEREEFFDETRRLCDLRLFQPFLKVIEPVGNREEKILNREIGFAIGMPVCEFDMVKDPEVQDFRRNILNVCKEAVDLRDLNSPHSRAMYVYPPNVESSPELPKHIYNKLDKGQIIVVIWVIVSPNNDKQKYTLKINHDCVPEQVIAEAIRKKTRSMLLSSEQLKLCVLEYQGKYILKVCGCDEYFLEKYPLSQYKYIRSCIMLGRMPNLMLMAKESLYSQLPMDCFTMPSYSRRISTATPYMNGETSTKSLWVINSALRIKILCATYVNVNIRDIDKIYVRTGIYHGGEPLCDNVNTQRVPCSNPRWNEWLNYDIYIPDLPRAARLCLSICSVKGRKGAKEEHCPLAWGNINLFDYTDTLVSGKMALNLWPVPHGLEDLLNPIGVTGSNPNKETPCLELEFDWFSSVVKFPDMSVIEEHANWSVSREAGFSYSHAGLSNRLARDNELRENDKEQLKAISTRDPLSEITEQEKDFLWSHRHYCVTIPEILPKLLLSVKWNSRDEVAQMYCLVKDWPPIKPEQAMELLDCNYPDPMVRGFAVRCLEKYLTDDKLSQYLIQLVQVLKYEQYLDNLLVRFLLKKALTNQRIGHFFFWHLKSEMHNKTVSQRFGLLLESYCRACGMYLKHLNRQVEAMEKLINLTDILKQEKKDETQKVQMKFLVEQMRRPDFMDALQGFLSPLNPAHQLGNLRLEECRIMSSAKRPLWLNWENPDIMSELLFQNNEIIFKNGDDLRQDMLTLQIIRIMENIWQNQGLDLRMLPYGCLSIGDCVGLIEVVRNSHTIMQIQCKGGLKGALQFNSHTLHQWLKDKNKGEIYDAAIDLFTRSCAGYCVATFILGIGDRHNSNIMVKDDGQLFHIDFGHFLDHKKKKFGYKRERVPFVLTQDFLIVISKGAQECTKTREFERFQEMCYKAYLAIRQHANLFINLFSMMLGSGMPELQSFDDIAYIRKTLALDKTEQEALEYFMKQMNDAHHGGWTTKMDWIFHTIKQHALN
T1 sequence (P27986 whole entry partner): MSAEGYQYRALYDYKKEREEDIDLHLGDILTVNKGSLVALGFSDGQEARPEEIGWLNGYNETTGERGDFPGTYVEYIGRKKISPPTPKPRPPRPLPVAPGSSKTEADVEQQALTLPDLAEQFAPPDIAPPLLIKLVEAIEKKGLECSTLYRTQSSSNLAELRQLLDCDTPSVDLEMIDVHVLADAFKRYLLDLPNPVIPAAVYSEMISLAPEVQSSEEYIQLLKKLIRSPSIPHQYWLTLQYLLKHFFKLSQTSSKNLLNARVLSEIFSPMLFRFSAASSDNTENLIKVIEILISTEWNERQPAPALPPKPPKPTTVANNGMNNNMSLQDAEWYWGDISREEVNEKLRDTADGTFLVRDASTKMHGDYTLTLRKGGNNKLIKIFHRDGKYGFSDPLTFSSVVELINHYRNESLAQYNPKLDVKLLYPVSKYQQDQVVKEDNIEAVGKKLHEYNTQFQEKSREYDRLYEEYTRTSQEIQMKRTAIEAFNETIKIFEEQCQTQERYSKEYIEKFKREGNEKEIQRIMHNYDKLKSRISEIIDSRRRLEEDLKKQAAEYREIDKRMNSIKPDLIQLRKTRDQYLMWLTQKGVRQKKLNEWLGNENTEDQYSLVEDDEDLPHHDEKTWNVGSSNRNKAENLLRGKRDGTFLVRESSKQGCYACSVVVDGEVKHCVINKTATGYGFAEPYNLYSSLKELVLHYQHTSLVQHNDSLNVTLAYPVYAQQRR
Nature of the experiment: PI3K activity assay (ADP Hunter Plus). In kind it is biochemical. The settings on record: read-out: PI3Kα IC50. Here is the method: The kinase activity was measured by using the commercial ADP Hunter™ Plus assay available from DiscoveRx, (#33-016), which is a homogeneous assay to measure the accumulation of ADP, a universal product of kinase activity. The enzyme, PI3K (p110α/p85α, was purchased from Carna Biosciences (#07CBS-0402A). The assay was done following the manufacturer recommendations with slight modifications: Mainly the kinase buffer was replace by 50 mM HEPES, pH 7.5, 3 mM MgCl2, 100 mM NaCl, 1 mM EGTA, 0.04% CHAPS, 2 mM TCEP and 0.01 mg/ml BGG. The PI3K was assayed in a titration experiment to determine the optimal protein concentration for the inhibition assay. To calculate the IC50 of the ETP-compounds, serial 1:5 dilutions of the compounds were added to the enzyme at a fixed concentration (2.5 μg/ml. The enzyme was preincubated with the inhibitor and 30 μM PIP2 substrate (P9763, Sigma) for 5 min and then ATP was added to a final 50 μM concentration. Reaction was carried out for 1 hour at 25° C. Reagent A and B were sequentially added to the wells and plates were incubated for 30 min at 37° C. Fluorescence counts were read in a Victor instrument (Perkin Elmer) with the recommended settings (544 and 580 nm as excitation and emission wavelengths, respectively). Values were normalized against the control activity included for each enzyme (i.e., 100% PI3 kinase activity, without compound). These values were plot against the inhibitor concentration and were fit to a sigmoid dose-response curve by using the Graphad software.
In the case of `Nc1ncc(-c2cn3nc(C(=O)N[C@H]4CC[C@H](O)CC4)cc3c(N3CCOCC3)n2)cn1` [1-10, 6-(2-amino-pyrimidin-5-yl)-4-morpholin-4-yl-pyrazolo[1,5-a]pyrazine-2-carboxylic acid (4-hydroxy-cyclohexyl)-amide], the 50% inhibitory concentration (IC50) worked out at 16 nM. For the molecule `Nc1ncc(-c2cn3nc(C(=O)N4CCCC4)cc3c(N3CCOCC3)n2)cn1` [1-07, [6-(2-amino-pyrimidin-5-yl)-4-morpholin-4-yl-pyrazolo[1,5-a]pyrazin-2-yl]-pyrrolidin-1-yl-methanone], the IC50 is 9 nM. On to `Nc1ncc(-c2cn3nc(C(=O)NC4CCOCC4)cc3c(N3CCOCC3)n2)cn1` [1-04], for which the IC50 was found to be 26 nM. In the case of `NC(=O)c1cc2c(N3CCOCC3)nc(-c3cnc(N)nc3)cn2n1` [1-05, 6-(2-amino-pyrimidin-5-yl)-4-morpholin-4-yl-pyrazolo[1,5-a]pyrazine-2-carboxylic acid amide], the IC50 is 14 nM. With `CN(C)CCCNC(=O)c1cc2c(N3CCOCC3)nc(-c3cnc(N)nc3)cn2n1` [1-09, 6-(2-amino-pyrimidin-5-yl)-4-morpholin-4-yl-pyrazolo[1,5-a]pyrazine-2-carboxylic acid (3-dimethylamino-propyl)-amide], the concentration for half-maximal inhibition (IC50) turned out to be 443 nM.

`COCCNC(=O)c1cc2c(N3CCOCC3)nc(-c3cnc(N)nc3)cn2n1` [1-03]: the IC50 is 29 nM and < 100 nM.

In the case of `NC(=O)c1cn2nc(-c3cnc(N)nc3)nc(N3CCOCC3)c2n1` [1-01], the half-maximal inhibitory concentration (IC50) amounted to 19 nM.

Turning to `COCCNC(=O)c1cn2nc(-c3cnc(N)nc3)nc(N3CCOCC3)c2n1` [1-02], the 50% inhibitory concentration (IC50) amounted to 3 nM.

A word on the IC50: it is the concentration that inhibits the measured activity by half.
